Nine compounds from US20060058243A1, “Methods and compositions for treating diabetes mellitis” (priority 2002, published 2006) can be followed below.

Data set [1] concerns 3T3-L1 adipocytes. Put plainly: Glucose transport stimulatory (GTS) activity, 2-deoxy-D-[3H]glucose uptake. In kind it is cell-based. As to conditions: for GTS activity (in words): 3T3-L1 cell system; for glucose uptake by the cells: 20-40 μM. As for the experimental part:
(§1) PGG, either as a mixture or as single isomer (α or β), is added to either adipocytes (A) or preadipocytes (B). GTS activity (A) and AD activity (B) of PGG are measured by ^3H-glucose uptake. GLUT4 is not expressed in preadipocytes, so glucose uptake can be used as an indirect measurement of adipocyte differentiation.
Glucose uptake activity in cells may be analyzed by measuring the uptake of 2-deoxy-D-[^3H] glucose using a standard assay. Confluent 3T3-L1 adipocytes grown in 12-well plates are washed twice with serum-free DMEM and incubated with 1 mL of the same medium at 37° C. for 2 h. The cells are washed 3 times with Krebs-Ringer-Hepes (KRP) buffer and incubated with 0.9 mL KRP buffer at 37° C. for 30 min. […] Glucose uptake is initiated by addition of 0.1 mL KRP buffer and 37 MBq/L 2-deoxy-D-[^3H] glucose and 1 mmol/L glucose as final concentrations. After 10 min, glucose uptake is terminated by washing the cells 3 times with cold PBS. The cells are lysed with 0.7 mL of 1% Triton X-100 at 37° C. for 20 min. The radioactivity retained by the cell lysates is determined by a scintillation counter. The dosage that induces the maximal glucose uptake can be selected among the experimental samples.
3T3-L1 adipocytes were purchased from ATCC, and maintained and passed as preadipocytes in DMEM supplemented with 10% calf serum in a 37° C. incubator with 10% CO2 as required by the cells. The cells were induced to differentiate into adipocytes by addition of MDI induction cocktail as described in Liu, F., Kim, J., Li, Y., Liu, X., Li, J. & Chen, X. (2001) An extract of Lagerstroemia speciosa L. has insulin-like glucose uptake-stimulatory and adipocyte differentiation-inhibitory activities in 3T3-L1 cells. J. Nutrition 131:2242-224, which is specifically incorporated herein by reference. Varying amounts of α-PGG and β-PGG were then added to the medium and the amount of glucose taken up by control and treated cells determined using a standard glucose uptake assay, as described in Liu et al. As shown in FIG. 2A chemically synthesized and plant derived β-PGG have similar glucose transport stimulatory (GTS). The GTS activity of α-PGG is consistently 10-20% higher than that of β-PGG (FIG. 2).
Confluent 3T3-L1 adipocytes grown in 12-well plates were washed twice with serum-free DMEM and incubated with 1 mL of the same medium at 37° C. for 2 h. The cells were washed 3 times with Krebs-Ringer-Hepes (KRP) buffer and incubated with 0.9 mL KRP buffer at 37° C. for 30 min. Compounds listed in the table below were then added at 20-40 μM (final concentration?) and adipocytes were incubated at 37° C. for 15 min. Glucose uptake was initiated by addition of 0.1 mL KRP buffer and 37 MBq/L 2-deoxy-D-[3H] glucose and 1 mmol/L glucose as final concentrations. After 10 min, glucose uptake was terminated by washing the cells 3 times with cold PBS. The cells were lysed with 0.7 mL of 1% Triton X-100 at 37° C. for 20 min. The radioactivity retained by the cell lysates is determined by a scintillation counter.

Data set [2] concerns the target T1, insulin receptor IR in 3T3-L1 adipocytes (Mus musculus, UniProt P15208).
T1 construct: host or cells: 3T3-L1 adipocytes
In words: 125I-insulin binding in the presence of PGG. The note with it: FIG. 4.

In a further data set the test system is gelatin, BSA, ovalbumin. Put plainly: Competitive protein binding assay with 125I BSA tracer. The note with it: FIG. 5. As for the experimental part: A fixed quantity of ^125I BSA was incubated with PGG in the presence of variable amount of either cold gelatin, or BSA, or ovalbumin. Bound was separated from free by precipitation and was expressed as the % bound in the absence of competitor.
A competitive binding assay using radiolabeled bovine serum albumin (BSA) as the tracer was used to determine whether PGG can bind proteins selectively. The relative affinities of three standard proteins for PGG differ from one another by at least 10-fold (FIG. 5), and the difference of the binding affinities of PGG to gelatin and ovalbumin is more than 100-fold.

Another data set has as its system Akt in 3T3-L1 adipocytes. Put plainly: Western blot of Akt phosphorylation. It is filed as cell-based. As to conditions: PGG 15 μM and 30 μM, FIG. 7. The text has this: Differentially treated adipocytes were lysed, the cell proteins analyzed by SDS-PAGE.
Data set [3] deals with 3T3-L1 preadipocytes. In words: Adipocyte differentiation (AD) of preadipocytes, MDI induction, Oil Red O staining and glucose uptake. It is filed as cell-based. As to the method:
as §1
Ten days after induction, the cells were stained with Oil Red 0 and photographed at magnification X200. Only those cells that contain fat vesicles (triglyceride) can be stained.
After about 10 days MDI induces differentiation, which is clearly visible as the change from fibroblast-like preadipcytes to round-shaped, fat vesicle-containing adipocytes.
3T3-L1 adipocytes were purchased from ATCC, and maintained and passed as preadipocytes in DMEM supplemented with 10% calf serum in a 37° C. incubator with 10% CO2 as required by the cells. To test the effect of PGG on adipogenesis, the preadipocytes were incubated either with a differentiation-induction cocktail comprised of 3-isobutyl-1-methylxanthine, […], a cocktail comprised of 3-isobutyl-1-methylxanthine, dexamethasone (MD) and PGG; or with MDI plus PGG.
In order to study the mechanism by which PGG inhibits 3T3-L1 preadipocyte differentiation, we used gene expression studies. This strategy allows us to determine whether PGG specifically acts on genes that participate in the differentiation process. […] After about 10 days MDI induces differentiation, which is clearly visible as the change from fibroblast-like preadipcytes to round-shaped, fat vesicle-containing adipocytes (FIG. 8 middle).

The test system of data set [4] is PPARγ and C/EBPα gene expression in 3T3-L1 preadipocytes. In words: Northern blot analysis of differentiation gene expression. It is filed as cell-based. The note with it: FIG. 9. As for the experimental part:
FIG. 9. Northern blot analysis of PPARγ and C/EBPα gene expression in 3T3-L1 preadipocytes. Differentially treated preadipocytes were analyzed for their mRNA expression at various times post treatment. Lane 1: No treatment; Lane 2=MDI; Lane 3=30 μM PGG+MDI; Lane 4=30 μM of PGG alone. Times=times post treatment when mRNA was isolated.
At various times the treated cells were harvested, the total RNA was isolated, and expression was analyzed by Northern blots using probes complementary to various genes that are involved in the differentiation process.

The test system of a further data set is ob/ob mice. In words: Glucose tolerance test in ob/ob mice. The note with it: ob/ob mice. In kind it is in vivo. As for the experimental part: FIG. 11. Effect of PGG on blood glucose levels in db/db and ob/ob mice. Various doses of α-PGG were orally delivered without glucose to db/db mice(A) or with glucose to ob/ob mice (B) mice. At different times post the delivery, glucose was determined in samples from tail blood.
FIG. 12. PGG protects ob/ob mice from hyperglycemia immediately after glucose challenge and hypoglycemia several days after the challenge. At various time points after the glucose challenge, blood glucose levels were measured in tail blood.
To determine if α-PGG is also effective in improving glucose tolerance in diabetic and obese mice, a glucose tolerance test was performed using ob/ob mice. Glucose or glucose plus α-PGG were orally delivered into male ob/ob mice, and blood glucose levels were measured at various times post glucose/PGG administration.
A single high does of glucose in ob/ob mice can be fatal, either because of the very high levels of blood glucose levels […] after the glucose challenge or because of the abnormally low glucose levels 2-3 days after the glucose challenge. […] Although the protection mechanisms are unknown at this time, it is very likely that α-PGG protected the ob/ob mice not only by its GTS activity, but also some other activity such as AD-related activity.

The subject of a further data set is Normal (healthy) mice. In words: Blood glucose in normal mice at basal glucose level (hypoglycemia test). As to conditions: given 120 min after 40 mg oral glucose; PGG oral, insulin intraperitoneal. As to the method:
Normal (healthy) mice were orally fed with 40 mg of glucose at time zero. […] Thus, PGG reduces blood glucose level when it is higher than normal.

The subject of data set [5] is 3T3-L1 adipocytes. In words: Glucose transport induced by insulin or PGG in the presence of insulin-signaling pathway inhibitors. In kind it is cell-based. As to conditions: FIG. 6. As for the experimental part:
The glucose transport activity of the treated cells was measured by ^3H glucose taken up by the cells. HNMPA-(AM)3 inhibits IR Tyr kinase activity, Cytochalasin B inhibits GLUT4, Wortmannin inhibits PI-3K, respectively.

Data set [6] relates to 3T3-L1 preadipocytes. In words: Clonal expansion / cell proliferation assay by LDH activity. In kind it is cell-based. As to conditions: in the presence of MDI, FIG. 10. As for the experimental part:
Preadipocytes were induced to undergo clonal expansion by MDI, or α-PGG, or β-PGG in the presence of MDI. 24 or 48 hrs after induction, the media was removed and the cells were lysed. The […] (LDH) activity of the cell lysates was measured by LDH kit. Cell growth media were also collected and their LDH activity from dead cells was also measured (not shown on this graph). LDH activity is a constant per cell in a given cell type, the LDH activity measured is proportional to the number of cells in the samples.
A cell proliferation assay was used to determine if PGG inhibits adipocyte differentiation by blocking clonal expansion. […] The basis for the difference between the anomers in clonal expansion and differentiation is not known.

“Also recorded” adds a separate entry of the source.

T1 sequence (P15208 28-748 limits assumed): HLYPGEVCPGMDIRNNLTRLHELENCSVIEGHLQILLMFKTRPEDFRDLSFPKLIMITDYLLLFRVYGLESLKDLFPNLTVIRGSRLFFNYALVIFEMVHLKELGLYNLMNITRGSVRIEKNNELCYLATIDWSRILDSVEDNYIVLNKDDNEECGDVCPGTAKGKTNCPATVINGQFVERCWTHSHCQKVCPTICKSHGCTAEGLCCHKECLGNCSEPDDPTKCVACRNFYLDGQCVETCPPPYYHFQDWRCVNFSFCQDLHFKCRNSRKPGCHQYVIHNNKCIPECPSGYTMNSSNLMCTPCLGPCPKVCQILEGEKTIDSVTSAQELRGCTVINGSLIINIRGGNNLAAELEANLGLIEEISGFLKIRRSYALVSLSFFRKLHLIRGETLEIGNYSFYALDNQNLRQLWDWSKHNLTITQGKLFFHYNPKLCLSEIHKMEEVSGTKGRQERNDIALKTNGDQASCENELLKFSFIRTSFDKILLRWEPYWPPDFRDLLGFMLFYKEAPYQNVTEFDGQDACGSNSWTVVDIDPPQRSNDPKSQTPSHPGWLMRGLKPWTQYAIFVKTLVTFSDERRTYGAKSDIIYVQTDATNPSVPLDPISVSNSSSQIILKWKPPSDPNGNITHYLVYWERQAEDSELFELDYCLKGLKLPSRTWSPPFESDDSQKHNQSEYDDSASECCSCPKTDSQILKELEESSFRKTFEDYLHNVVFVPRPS
T1 sequence (P15208 753-1372 limits assumed): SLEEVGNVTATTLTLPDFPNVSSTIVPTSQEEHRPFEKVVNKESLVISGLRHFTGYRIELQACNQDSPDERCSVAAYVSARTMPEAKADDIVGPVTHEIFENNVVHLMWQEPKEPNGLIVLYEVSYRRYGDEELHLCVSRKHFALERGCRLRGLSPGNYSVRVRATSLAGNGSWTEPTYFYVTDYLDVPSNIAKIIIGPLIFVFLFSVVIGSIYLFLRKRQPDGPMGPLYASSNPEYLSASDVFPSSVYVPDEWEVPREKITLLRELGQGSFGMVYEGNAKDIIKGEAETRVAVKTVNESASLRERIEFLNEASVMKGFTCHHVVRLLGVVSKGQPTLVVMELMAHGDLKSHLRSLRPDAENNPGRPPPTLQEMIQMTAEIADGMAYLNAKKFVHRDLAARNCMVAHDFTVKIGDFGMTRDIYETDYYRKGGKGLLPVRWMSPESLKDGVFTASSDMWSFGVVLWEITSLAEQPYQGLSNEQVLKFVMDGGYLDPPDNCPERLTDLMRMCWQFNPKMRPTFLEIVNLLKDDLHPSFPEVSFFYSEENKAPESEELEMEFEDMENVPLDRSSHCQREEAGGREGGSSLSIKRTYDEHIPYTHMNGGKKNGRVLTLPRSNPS

Turning to `O=C(O[C@@H]1Cc2c(O)cc(O)cc2O[C@@H]1c1cc(O)c(O)c(O)c1)c1cc(O)c(O)c(O)c1` [EGCG, reference compound], the “GTS activity (in words)” value in the data set on 3T3-L1 adipocytes [1] is “no activity”.
As to `O=C[C@H](OC(=O)c1cc(O)c(O)c(O)c1)[C@@H](OC(=O)c1cc(O)c(O)c(O)c1)[C@H](OC(=O)c1cc(O)c(O)c(O)c1)[C@@H](COC(=O)c1cc(O)c(O)c(O)c1)OC(=O)c1cc(O)c(O)c(O)c1` [PGG, penta-O-galloyl-D-glucose], the “GTS activity (in words)” value with 3T3-L1 adipocytes [1] is listed as “high activities”. Also, the “competition with / displacement of insulin at the insulin binding site on IR” value in data set [2] (8 pM 125I-insulin, 0.1 to 20 μM PGG, overnight 4° C.) is reported as “does not compete with insulin; also recorded: unable to displace insulin from IR”. In data set [2] (PGG above 20 μM), the “insulin binding at higher PGG concentrations” value is listed as “Insulin binding increased”. For the same compound, in the data set with gelatin, BSA, ovalbumin, the “difference of binding affinities of PGG to gelatin and ovalbumin” value was “more than 100 fold”. Also, the “difference between relative affinities of three standard proteins for PGG” value with gelatin, BSA, ovalbumin (gelatin, BSA, ovalbumin) is listed as “at least 10 fold”. In the data set with Akt in 3T3-L1 adipocytes, the “phosphorylation of Akt” value is reported as “phosphorylated”. For the same compound, the “induction of differentiation when insulin in MDI was substituted by PGG” value with 3T3-L1 preadipocytes [3] (MD plus PGG, FIG. 2B) is “failed to induce differentiation”. Further, in the data set with 3T3-L1 preadipocytes [3] (about 10 days, 30 μM PGG, FIG. 8), the “differentiation of preadipocytes treated with MDI plus compound” value was “retain their fibroblast-like morphology and remain fat vesicle-free”. In addition, the “expression of genes PPAR-γ, c/EBP induced by MDI” value in data set [4] (30 μM PGG+MDI) is reported as “completely abolished”. For the same compound, the β-actin expression entry in data set [4] is recorded as “not significantly affected”. The toxic effects result with ob/ob mice is reported as “No PGG-related toxic effects were observed”. In the data set with Normal (healthy) mice, the “hypoglycemia / blood glucose below basal levels” value was “does not further reduce bood glucose levels beyond normal or basal levels”.
As to `O=C(OC[C@H]1OC(OC(=O)c2cc(O)c(O)c(O)c2)[C@H](OC(=O)c2cc(O)c(O)c(O)c2)[C@@H](OC(=O)c2cc(O)c(O)c(O)c2)[C@H]1OC(=O)c1cc(O)c(O)c(O)c1)c1cc(O)c(O)c(O)c1` (stereo partly shown) [PGGal, Pentagalloyl galactose], in the data set with 3T3-L1 adipocytes [1] (3T3-L1 cells), the “GTS activity relative to PGG” value is recorded as 60-70%.
Consider `C=C1[C@@H](C)[C@H]2[C@H](Cc3ccccc3)NC(=O)[C@]23OC(=O)/C=C/[C@H](O)CCC[C@@H](C)C/C=C/[C@H]3[C@@H]1O` [cytochalasin B], for which the “inhibition of the GTS activity mediated by either insulin or PGG” value in the data set with 3T3-L1 adipocytes [5] is on record as “completely inhibited”.
Regarding `O=C(O[C@H]1OC[C@@H](OC(=O)c2cc(O)c(O)c(O)c2)[C@H](OC(=O)c2cc(O)c(O)c(O)c2)[C@H]1OC(=O)c1cc(O)c(O)c(O)c1)c1cc(O)c(O)c(O)c1` [α-XylG4, Tetrakis-O-(3,4,5-trihydroxybenzoyl) -α-D-xylopyranose], the “glucose uptake by the cells” value in the data set with 3T3-L1 adipocytes [1] (3T3-L1 adipocytes) was “increased glucose uptake”.
Same read-out and setting: in the case of `O=C(OC[C@H]1O[C@@H](OC(=O)c2ccc(O)c(O)c2)[C@H](OC(=O)c2ccc(O)c(O)c2)[C@@H](OC(=O)c2ccc(O)c(O)c2)[C@@H]1OC(=O)c1ccc(O)c(O)c1)c1ccc(O)c(O)c1` [β-Glc(G-3,4-OH2)5, Pentakis-O-(3,4-dihydroxybenzoyl) -β-D-glucopyranose] it was “increased glucose uptake”.
On to `O=C(OC[C@H]1O[C@@H](OC(=O)c2cc(O)c(O)c(O)c2)[C@H](OC(=O)c2cc(O)c(O)c(O)c2)[C@@H](OC(=O)c2cc(O)c(O)c(O)c2)[C@@H]1OC(=O)c1cc(O)c(O)c(O)c1)c1cc(O)c(O)c(O)c1` [β-PGG, 1,2,3,4,6-penta-O-galloyl-β-D-glucose], for which, in the data set on 3T3-L1 adipocytes [1] (3T3-L1 adipocytes, FIG. 2A), the “GTS activity, synthesized versus plant derived β-PGG” value is given as “similar”. Moreover, in the data set on 3T3-L1 preadipocytes [6], the “first round of clonal expansion” value was “not inhibited” and the “second round of clonal expansion” value is “completely inhibited”.
Take “insulin: hormone, positive control [reference compound]”: the “hypoglycemia / blood glucose below basal levels” value in the data set on Normal (healthy) mice is reported as “resulted in a hypoglycemic condition”.
Take pentagalloyl deoxynojirimycin [PG-DJM]: the “GTS activity (in words)” value in the data set with 3T3-L1 adipocytes [1] is recorded as “no detectable GTS activity”.
